Experimental data taken from patent US4996314A, “6-(disubstituted amino)carbapenem compounds” (Sanraku Incorporated, priority 1986, dated 1991).

Tests used:
Test in all cases: Antimicrobial activity (MIC), agar diluting method
Format in all cases: cell-based
[1] = system: Micrococcus luteus (ATCC 9341); conditions: ATCC9341, Mueller Hinton agar, 35° C., 18 hours
Experimental: (§1) (1) Antimicrobial activity test
(§2) The antimicrobial activity was measured by the agar diluting method in accordance with the Standardized Method of the Japanese Society of Chemotherapy. A twofold dilution of a test compound was prepared by using M/50 phosphate buffer (pH 7.0). One milliliter of this solution and 9 ml of a Mueller Hinton agar medium (made by Difco Laboratories were mixed in a Petri dish having a diameter of 9 cm to prepare plates. A test microorganism was cultured overnight in a stationary condition at 35° C. in a Mueller-Hinton broth (made by Difco) and diluted with physiological saline to provide a cell density of about 10 ^6 cells/ml. Five microliter of the microorganism suspension was inoculated on the agar plates using a microplanter (made by Sakuma Seisakusho). The plates were incubated at 35° C. for 18 hours. The lowest concentration of the test compound at which the growth of the microorganism was completed inhibited is defined as the minimum inhibitory concentration (MIC) of the test compound against the test organism.

[2] = system: Staphylococcus aureus (FDA 209 p); conditions: FDA209, Mueller Hinton agar, 35° C., 18 hours
Experimental: as §1, §2

[3] = system: Bacillus subtilis (ATCC 6633); conditions: ATCC6633, Mueller Hinton agar, 35° C., 18 hours
Experimental: as §1, §2

[4] = system: Comamonas terrigena (B 996); conditions: Mueller Hinton agar, 35° C., 18 hours
Experimental: as §1, §2

SMILES | MIC [1] [µg/mL] | MIC [2] [µg/mL] | MIC [3] [µg/mL] | MIC [4] [µg/mL]
CC(=O)NCCSC1=C(C(=O)O)N2C(=O)[C@H](N(C)C(=O)OCc3ccccc3)[C@H]2C1 [[14], sodium (5R,6R)-3-(2-acetamidoethylthio)-6-(N-benzyloxycarbonyl)methylamino-7-oxo-1-azabicyclo[3.2.0]hept-2-ene-2-carboxylate] | 1.56 | 0.2 | 1.56 | 1.56
CC(=O)NCCSC1=C(C(=O)O)N2C(=O)[C@H](N(C)S(C)(=O)=O)[C@H]2C1 [[29], sodium (5R,6R)-3-(2-acetamidoethylthio)-6-(N-methanesulfonyl)methylamino-7-oxo-1-azabicyclo[3.2.0]hept-2-ene-2-carboxylate] | 0.78 | 0.2 | 1.56 | 3.13
COC(=O)N(C)[C@H]1C(=O)N2C(C(=O)O)=C(SCCNC(C)=O)C[C@H]12 [[22], sodium (5R,6R)-6-(N-carbomethoxy-N-methyl)amino-3-acetamidoethylthio-1-azabicyclo[3.2.0]hept-2-ene-7-one-2-carboxylate] | 3.13 | 0.39 | 6.25 | 0.39
